In patent US8633212B2, “Inhibitors of beta-secretase” (Vitae Pharmaceuticals, Inc., priority 2009, dated 2014):
Like-named read-outs stand apart in the source and are kept apart here.

Experiments:
[1] = target: truncated human beta-secretase (residues 1-458, His6-tagged at the C-terminus) (Homo sapiens (Human), UniProt P56817); assay: BACE enzyme assay (fluorescence quench assay, Example 434A); format: biochemical; conditions: read-out: IC50
[2] = target: H4 neuroglioma cell line stably expressing APP with the KM-NL Swedish mutation (H4-APPsw); soluble Amyloid Beta 1-40 (Aβ 1-40) (Homo sapiens (Human), UniProt P56817); assay: BACE cell assay: soluble Aβ 1-40 in culture media of H4-APPsw cells (AlphaLISA/ELISA); format: cell-based; conditions: in vitro cell activity; H4-APPsw cells treated overnight, secreted Aβ 1-40 in culture media
Sequence of H4 neuroglioma cell line stably expressing APP with the KM-NL Swedish mutation (H4-APPsw); soluble Amyloid Beta 1-40 (Aβ 1-40) (P56817 46-501 limits assumed, change not shown): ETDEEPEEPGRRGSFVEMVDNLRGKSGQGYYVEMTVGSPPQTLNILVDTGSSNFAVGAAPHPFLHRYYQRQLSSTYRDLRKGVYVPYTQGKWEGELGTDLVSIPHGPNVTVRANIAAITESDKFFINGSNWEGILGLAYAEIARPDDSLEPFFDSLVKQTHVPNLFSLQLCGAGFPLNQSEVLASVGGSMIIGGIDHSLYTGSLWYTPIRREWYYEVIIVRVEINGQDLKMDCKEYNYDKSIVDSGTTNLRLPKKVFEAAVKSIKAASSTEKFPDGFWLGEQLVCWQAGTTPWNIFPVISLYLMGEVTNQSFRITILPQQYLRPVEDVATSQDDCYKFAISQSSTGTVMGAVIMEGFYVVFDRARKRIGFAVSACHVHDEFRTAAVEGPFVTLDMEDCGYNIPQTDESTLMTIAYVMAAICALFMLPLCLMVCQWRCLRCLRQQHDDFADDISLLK
Experimental: H4 neuroglioma cell line that stably expresses Amyloid Precursor Protein (APP) containing the KM-NL Swedish mutation (H4-APPsw) was generated. For the assay, cells are treated overnight in the presence of inhibitor and the culture media are subjected to ELISA analysis of soluble Amyloid Beta 1-40 (Aβ 1-40).
Generation and Maintenance of H4-APPsw Cell Line
H4 neuroglioma cell line was cultured in DMEM with 10% FBS and 1% penicillin/streptomycin (Culture Medium) at 37° C., 5% CO2. […] 24 hrs after transfection, the cells were replaced into three new plates (150 mm) in fresh Culture Medium with 250 ug/mL Zeocin. […] The levels of APPsw expression were analyzed by immunoblotting and the production of Aβ 1-40 was detected by ELISA of culture supernatants. The selected clones are maintained in Culture Medium with 250 μg/mL Zeocin and routinely split in 3-4 days to maintain 20-80% confluence.
Final Assay Conditions (96-Well Plate)
Split H4-APPsw cells in Culture Medium and culture overnight such that cells will be ˜80% confluent next morning.
Create Compound Dilution Plate.
After determining the desired final concentration of compound to be tested, create a 500× dilution plate. Add DMSO, but not inhibitor, to each well of Column 1. […] Add compounds of interest at 500× desired final concentration to wells A3-A10. […] Dilute contents of Row A 1:3 in Row B, then continue through Rows C-H.
Add 4 μL 5 mM control compound to Media Plate wells A1-D1 for determination of full inhibition.
With a multichannel pipettor, mix each well of Media Plate several times to insure homogeneity. […] Next, place Medium Plate and Cell Plate in the incubator.
Trypsinize and count H4-APPsw cells. Dilute cells 6×10^5 cells/mL in Culture Medium and remove Cell Plate from incubator. Vortex cells to homogeneity, then using a multichannel repeating pipettor, add 100 μL cell suspension to Cell Plate, adding cells from Row H to Row A. Place Cell Plate in incubator.
Change media in Cell Plate.
After 5 h, check Cell Plate by microscope to insure cells are attached. In culture hood, remove media from Cell Plate using multichannel repeating pipettor. Add 100 μl Culture Medium to each well. Remove Media Plate from incubator and mix with pipettor as previous. Add 100 μl from each well of Media Plate to corresponding well in Cell Plate. Place Cell Plate in incubator overnight.
Perform ELISA to determine levels of secreted Aβ 1-40.
After 16 h incubation, spin Cell Plate for 8 min at 1200 rpm. The primary reading of Aβ 1-40 levels is done using PerkinElmer AlphaLISA technology. Follow the manufacturer's protocol for performing AlphaLISA in a white ½ area Optiwell plate using Row 12 for peptide standard (1:2 dilutions, starting at 15 ng/ml). Data are acquired using PerkinElmer Fusion-Alpha FP-HT, Alpha protocol (Count Time 0.6s, Count Time Ratio 30%:70%).
Export data from Fusion using Columnar Report format into a separate file for each plate. Upload data into Activity Base using RIA-DOSE-RESPONSE protocol (Version 1). Data from at least eight doses were fitted to a four parameter logistical model using XLfit software to determine potency.

[3] = footnote a: protocols described in Example 434A

Sequence of truncated human beta-secretase (residues 1-458, His6-tagged at the C-terminus) (P56817 22-458): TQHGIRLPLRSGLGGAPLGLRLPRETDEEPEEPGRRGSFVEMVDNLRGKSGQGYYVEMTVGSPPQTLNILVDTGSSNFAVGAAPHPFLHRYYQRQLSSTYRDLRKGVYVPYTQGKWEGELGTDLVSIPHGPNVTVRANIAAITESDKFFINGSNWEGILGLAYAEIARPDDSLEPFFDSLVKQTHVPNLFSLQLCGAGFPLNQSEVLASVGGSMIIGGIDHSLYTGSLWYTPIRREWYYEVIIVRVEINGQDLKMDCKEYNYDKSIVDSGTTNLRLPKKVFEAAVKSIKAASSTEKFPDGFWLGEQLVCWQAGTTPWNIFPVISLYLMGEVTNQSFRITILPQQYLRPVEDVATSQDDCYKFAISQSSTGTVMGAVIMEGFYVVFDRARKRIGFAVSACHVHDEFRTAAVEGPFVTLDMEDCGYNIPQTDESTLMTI

IC50 [1, 3] [nM]	IC50 [2] [nM]	Compound	IC50 [1] [nM]
93.3	< 1000	CN1OC2(N=C1N)c1cc(-c3cccc(C#N)c3)ccc1CC21CC=C(F)CC1 (stereo not shown) [Compound 34]	
161	< 5000	CC1=C(C)CC2(CC1)Cc1ccc(-c3cccc(C#N)c3)cc1C21N=C(N)N(C)O1 (stereo not shown) [Compound 41]	
293	< 10000	CN1OC2(N=C1N)c1cc(-c3cccc(C#N)c3)ccc1CC21CCCc2ccccc2C1 (stereo not shown) [Compound 46]	
443	< 1000	CN1OC2(N=C1N)c1cc(-c3cccc(C#N)c3)ccc1CC21CCCC1 (stereo not shown) [Compound 50]	

The next lines start with the compound.

Compound	IC50 [1, 3] [nM]	IC50 [2] [nM]	IC50 [1] [nM]
CN1OC2(N=C1N)c1cc(-c3cccc(C(F)(F)F)c3)ccc1CC21CCc2ccccc2CC1 (stereo not shown) [Compound 39]		< 10000	158
CN1OC2(N=C1N)c1cc(-c3cccc(C#N)c3)ccc1CC21Cc2ccccc2C1 (stereo not shown) [Compound 40]	160	< 5000	
COC1CCC2(CC1)Cc1ccc(-c3cc(F)cc(Cl)c3)cc1C21CC(=O)N(C)C(N)=N1 (stereo not drawn) [Compound 42, 2″-amino-1′″-methyl-6-(3-chloro-5-fluorophenyl)-1″H-spiro[spiro[2,3-dihydro-indene-2,1′-(trans-4-methoxycyclohexane)]-1,4′-pyrimidin]-6″(5″H)-one]		< 100	173
CN1OC2(N=C1N)c1cc(-c3cccc(C#N)c3)ccc1CC21CCc2cc(F)ccc2C1 (stereo not shown) [Compound 43]		< 5000	178
CN1OC2(N=C1N)c1cc(-c3cccc(C#N)c3)ccc1CC21CCC(F)(F)CC1 (stereo not shown) [Compound 44]	189	< 5000	
CN1OC2(N=C1N)c1cc(-c3cccc(C#N)c3)ccc1CC21C=CC(c2ccccc2)C1 (stereo not shown) [Compound 47]	295	< 10000	
CN1OC2(N=C1N)c1cc(-c3cccc(C#N)c3)ccc1CC21CCc2c(F)cccc2C1 (stereo not shown) [Compound 54]	618	< 5000	
CO[C@H]1CC2(Cc3ccc(-c4cccc(C#N)c4)cc3C23N=C(N)N(C)O3)C[C@H]1OC (stereo partly shown) [Compound 57]	936	< 5000	
CO[C@H]1CC[C@]2(CC1)Cc1ccc(-c3cccc(C#N)c3)cc1C21CC(=O)N(C)C(N)=N1 (stereo partly drawn) [Compound 58, 3-(2″-amino-1′″-methyl-6″-oxo-5″,6″-dihydro-1″H-spiro[spiro[2,3-dihydro-indene-2,1′-(trans-4-methoxycyclohexane)]-1,4′-pyrimidine]-6-yl)benzonitrile]		< 100	970
COC1CCC2(CC1)Cc1ccc(-c3cccnc3)cc1C21CC(=O)N(C)C(N)=N1 (stereo not drawn) [Compound 59, 2″-amino-1′″-methyl-6-(pyridin-3-yl)-1″H-spiro[spiro[2,3-dihydro-indene-2,1′-(trans-4-methoxycyclohexane)]-1,4′-pyrimidin]-6″(5″H)-one]		< 500	1550
